The target of one series is T1, recombinant human PDE5 (Homo sapiens, UniProt O76074).
T1 construct: purchased BPS Biosciences, San Diego, CA
Kind of series: IMAP fluorescence polarization phosphodiesterase assay (TAMRA-cGMP substrate). The class given is biochemical. The settings on record: for IC50: 10 concentrations, at least two replicates per concentration, read-out: PDE5 inhibition IC50; for PDE5 inhibition, result in words: SAR discussion; for inhibition at 10 µM: read-out: %PDE5 inhibition at 10 μM. The method, then: PDE activity was measured using a modification of the IMAP fluorescence polarization phosphodiesterase assay from Molecular Devices. The assay was modified to use tetramethylrhodamine- (TAMRA-) cGMP as substrate. PDE hydrolysis of the fluorescent labeled substrate allows it to bind the IMAP binding reagent, which results in increased FP. […] The assays were performed in 96-well microtiter plates using a reaction buffer containing 10 mM Tris-HCl (pH 7.2), 10 mM MgCl2, 0.05% NaN3, and 0.1% phosphate-free BSA as the carrier. Each well contained 20 μL of recombinant enzyme (5 units//mL, BPS Biosciences, San Diego, CA) and 10 μL test agent. The reaction was initiated by the addition of 10 μL of a substrate solution containing 50 nM TAMRA-cGMP. After incubating at room temperature for 60 minutes, the reaction was terminated by adding 120 μL of binding solution. FP was measured by a Perkin Elmer Envision plate reader.
Dose response curves were analyzed using Prism 4 software (GraphPad) to calculate IC50 values using a four-parameter logistic equation. All in vitro experiments involved dose-response analysis were repeated at least twice to confirm reproducibility of IC50 values.

[1] abbreviates: screening dose 10 μM, triplicate.

Read-outs that look alike come from different tables or passages of the source.

As usually defined, the melting point is the temperature of the solid-liquid transition. In general, IC50 refers to the point on the concentration scale where inhibition reaches its midpoint. In general, inhibition refers to the relative decrease from the control value, in per cent. In turn, `CCN1C(=O)[C@H]2Cc3c([nH]c4ccccc34)[C@@H](c3ccc(OC)cc3OC)N2C1=O` [Compound 5, (5R,11aR)-2-Ethyl-5-(2,4-dimethoxyphenyl)-5,6,11,11a-tetrahydro-1-H-imidazo[5,1-6,1]pyrido[3,4-b]indole-1,3-dione] gave a melting point of 216 to 218 °C. Also, on recombinant human PDE5, the IC50 amounted to 0.36 µM and the “PDE5 inhibition, result in words” value is “active PDE5 inhibitors”. On recombinant human PDE5 (setting [1]), the inhibition at 10 µM worked out at 87%.

`C=CCN1C(=O)[C@@H]2Cc3c([nH]c4ccccc34)[C@@H](c3ccc(OC)cc3OC)N2C1=S` [Compound 19, (5R,11aS)-2-Allyl-1-oxo-5-(2,4-dimethoxyphenyl)-5,6,11,11a-tetrahydro-1H-imidazo[5,1-1,6]pyrido[3,4-b]indole-3(2H)-thione]: the melting point fell in the range of 224 to 227 °C. Besides, at recombinant human PDE5, the IC50 was determined as 0.56 µM. The inhibition at 10 µM on recombinant human PDE5 (setting [1]) is 87%.

`COc1ccc([C@H]2c3[nH]c4ccccc4c3C[C@H]3C(=O)N(C(C)(C)C)C(=O)N23)c(OC)c1` [Compound 11, (5S,11aS)-2-Tertiarybutyl-5-(2,4-dimethoxyphenyl)-5,6,11,11a-tetrahydro-1-H-imidazo[5,1-6,1]pyrido[3,4-b]indole-1,3-dione] displayed a melting point of 103 to 106 °C. Further, the inhibition at 10 µM at recombinant human PDE5 (setting [1]) amounted to 46%.

In turn, `COC(=O)[C@H]1Cc2c([nH]c3ccccc23)[C@H](c2ccc(OC)cc2OC)N1` [Compound 2, (1S,3R) Methyl-1-(2,4-dimethoxyphenyl)-2,3,4,9-tetrahydro-1-H-pyrido[3,4-b]indole-3-carboxylate] gave a melting point of 146 to 147 °C. Moreover, at recombinant human PDE5 (setting [1]), the inhibition at 10 µM worked out at 63%.

In turn, `COC(=O)[C@@H]1Cc2c([nH]c3ccccc23)[C@@H](c2ccc(OC)cc2OC)N1` [Compound 4, (1R,3S) Methyl-1-(2,4-dimethoxyphenyl)-2,3,4,9-tetrahydro-1-H-pyrido[3,4-b]indole-3-carboxylate] yielded a melting point of 148 to 150 °C. Moreover, the IC50 at recombinant human PDE5 amounted to 6.4 µM. Further, the inhibition at 10 µM at recombinant human PDE5 (setting [1]) was determined as 75%.

As to `COc1ccc([C@@H]2c3[nH]c4ccccc4c3C[C@@H]3C(=O)N(c4ccc(Cl)cc4)C(=O)N23)c(OC)c1` [Compound 13, (5R,11aR)-2-(P-Chlorophenyl)-5-(2,4-dimethoxyphenyl)-5,6,11,11a-tetrahydro-1H-imidazo[5,1-6,1]pyrido[3,4-b]indole-1,3-dione], the melting point fell in the range of 134 to 136 °C. Besides, the inhibition at 10 µM on recombinant human PDE5 (setting [1]) was 63%.

On to `COc1ccc([C@H]2c3[nH]c4ccccc4c3C[C@@H]3C(=O)N(C(C)(C)C)C(=O)N23)c(OC)c1` [Compound 10, (5S,11aR)-2-Tertiarybutyl-5-(2,4-dimethoxyphenyl)-5,6,11,11a-tetrahydro-1-H-imidazo[5,1-6,1]pyrido[3,4-b]indole-1,3-dione], for which the melting point fell in the range of 191 to 193 °C. Further, the inhibition at 10 µM at recombinant human PDE5 (setting [1]) worked out at 68%.

Turning to `COc1ccc([C@H]2c3[nH]c4ccccc4c3C[C@@H]3C(=O)N(C)C(=S)N23)c(OC)c1` [Compound 18, (5S,11aR)-2-Methyl-1-oxo-5-(2,4-dimethoxyphenyl)-5,6,11,11a-tetrahydro-1-H-imidazo[5,1-1,6]pyrido[3,4-b]indole-3(2H)-thione], the melting point was 188 to 190 °C. For the same compound, the inhibition at 10 µM on recombinant human PDE5 (setting [1]) is 23%.

The compound `CCN1C(=O)[C@H]2Cc3c([nH]c4ccccc34)[C@H](c3ccc(OC)cc3OC)N2C1=O` [Compound 6, (5S,11aR)-2-Ethyl-5-(2,4-dimethoxyphenyl)-5,6,11,11a-tetrahydro-1-H-imidazo[5,1-6,1]pyrido[3,4-b]indole-1,3-dione] returned a melting point of 190 to 193 °C. In addition, on recombinant human PDE5, the IC50 is 0.72 µM and the “PDE5 inhibition, result in words” value is “active”. Further, the inhibition at 10 µM on recombinant human PDE5 (setting [1]) amounted to 88%.

`COc1ccc([C@@H]2c3[nH]c4ccccc4c3C[C@H]3C(=O)N(c4ccc(Cl)cc4)C(=O)N23)c(OC)c1` [Compound 16, (5R,11aS)-2-(P-Chlorophenyl)-5-(2,4-dimethoxyphenyl)-5,6,11,11a-tetrahydro-1-H-imidazo[5,1-6,1]pyrido[3,4-b]indole-1,3-dione]: the melting point is 212 to 215 °C. In addition, the inhibition at 10 µM on recombinant human PDE5 (setting [1]) was determined as 63%.

As for `CN1CC(=O)N2[C@H](c3ccc4c(c3)OCO4)c3[nH]c4ccccc4c3C[C@@H]2C1=O` [Tadalafil, tadalafil, reference compound], on recombinant human PDE5, the inhibition at 10 µM came out at 99%.

For `COc1ccc([C@@H]2c3[nH]c4ccccc4c3C[C@H]3C(=O)N(C)C(=S)N23)c(OC)c1` [Compound 17, (5R,11aS)-2-Methyl-1-oxo-5-(2,4-dimethoxyphenyl)-5,6,11,11a-tetrahydro-1H-imidazo[5,1-6,1]pyrido[3,4-b]indole-3(2H)-thione], the melting point lay in the range of 188 to 191 °C. Further, at recombinant human PDE5 (setting [1]), the inhibition at 10 µM is 29%.

Consider `COc1ccc([C@@H]2c3[nH]c4ccccc4c3C[C@H]3C(=O)N(C(C)(C)C)C(=O)N23)c(OC)c1` [Compound 12, (5R,11aS)-2-Tertiarybutyl-5-(2,4-dimethoxyphenyl)-5,6,11,11a-tetrahydro-1-H-imidazo[5,1-6,1]pyrido[3,4-b]indole-1,3-dione], for which the melting point lay within 193 to 195 °C. On recombinant human PDE5, the IC50 is 0.55 µM and the “PDE5 inhibition, result in words” value is recorded as “active PDE5 inhibitors”. Also, on recombinant human PDE5 (setting [1]), the inhibition at 10 µM worked out at 87%.

Compound `COc1ccc([C@H]2c3[nH]c4ccccc4c3C[C@H]3C(=O)N(c4ccc(Cl)cc4)C(=O)N23)c(OC)c1` [Compound 15, (5S,11aS)-2-(P-Chlorophenyl)-5-(2,4-dimethoxyphenyl)-5,6,11,11a-tetrahydro-1-H-imidazo[5,1-6,1]pyrido[3,4-b]indole-1,3-dione] had a melting point of 135 to 138 °C. The inhibition at 10 µM on recombinant human PDE5 (setting [1]) was 35%.

`CCN1C(=O)[C@@H]2Cc3c([nH]c4ccccc34)[C@H](c3ccc(OC)cc3OC)N2C1=O` [Compound 7, (5S,11aS)-2-Ethyl-5-(2,4-dimethoxyphenyl)-5,6,11,11a-tetrahydro-1-H-imidazo[5,1-6,1]pyrido[3,4-b]indole-1,3-dione] had a melting point of 217 to 220 °C. For the same compound, the inhibition at 10 µM on recombinant human PDE5 (setting [1]) came out at 54%.

Consider `COc1ccc([C@H]2c3[nH]c4ccccc4c3C[C@@H]3C(=O)N(c4ccc(Cl)cc4)C(=O)N23)c(OC)c1` [Compound 14, (5S,11aR)-2-(P-Chlorophenyl)-5-(2,4-dimethoxyphenyl)-5,6,11,11a-tetrahydro-1-H-imidazo[5,1-6,1]pyrido[3,4-b]indole-1,3-dione], for which the melting point fell in the range of 214 to 216 °C. Further, the inhibition at 10 µM on recombinant human PDE5 (setting [1]) stood at 60%.

Regarding `COC(=O)[C@H]1Cc2c([nH]c3ccccc23)[C@@H](c2ccc(OC)cc2OC)N1` [Compound 1, (1R, 3R) Methyl-1-(2,4-dimethoxyphenyl)-2,3,4,9-tetrahydro-1-H-pyrido[3,4-b]indole-3-carboxylate], the melting point was in the range of 86 to 88 °C. The IC50 on recombinant human PDE5 stood at 2.5 µM. Moreover, at recombinant human PDE5 (setting [1]), the inhibition at 10 µM turned out to be 77%.

On to `COc1ccc([C@@H]2c3[nH]c4ccccc4c3C[C@@H]3C(=O)N(C(C)(C)C)C(=O)N23)c(OC)c1` [Compound 9, (5R,11aR)-2-Tertiarybutyl-5-(2,4-dimethoxyphenyl)-5,6,11,11a-tetrahydro-1-H-imidazo[5,1-6,1]pyrido[3,4-b]indole-1,3-dione], for which the melting point lay in the range of 108 to 110 °C. At recombinant human PDE5, the IC50 is 2.4 µM and the “PDE5 inhibition, result in words” value is “active PDE5 inhibitors”. On recombinant human PDE5 (setting [1]), the inhibition at 10 µM is 83%.

Consider `COC(=O)[C@@H]1Cc2c([nH]c3ccccc23)[C@H](c2ccc(OC)cc2OC)N1` [Compound 3, (1S,3S) Methyl-1-(2,4-dimethoxyphenyl)-2,3,4,9-tetrahydro-1-H-pyrido[3,4-b]indole-3-carboxylate], for which the melting point lay in the range of 88 to 90 °C. On recombinant human PDE5 (setting [1]), the inhibition at 10 µM amounted to 55%.

As for `CCN1C(=O)[C@@H]2Cc3c([nH]c4ccccc34)[C@@H](c3ccc(OC)cc3OC)N2C1=O` [Compound 8, (5R,11aS)-2-Ethyl-5-(2,4-dimethoxyphenyl)-5,6,11,11a-tetrahydro-1-H-imidazo[5,1-6,1]pyrido[3,4-b]indole-1,3-dione], the melting point was in the range of 192 to 195 °C. In addition, on recombinant human PDE5, the IC50 came to 0.36 µM and the “PDE5 inhibition, result in words” value is on record as “active PDE5 inhibitors”. Also, at recombinant human PDE5 (setting [1]), the inhibition at 10 µM worked out at 97%.

The compound `C=CCN1C(=O)[C@H]2Cc3c([nH]c4ccccc34)[C@H](c3ccc(OC)cc3OC)N2C1=S` [Compound 20, (5S,11aR)-2-Allyl-1-oxo-5-(2,4-dimethoxyphenyl)-5,6,11,11a-tetrahydro-1H-imidazo[5,1-6,6,1]pyrido[3,4-b]indole-3(2H)-thione] gave a melting point of 224 to 227 °C. For the same compound, the inhibition at 10 µM at recombinant human PDE5 (setting [1]) amounted to 58%.

Values taken from paper PMC4939265, “Synthesis, Molecular Modeling, and Biological Evaluation of Novel Tetrahydro-β-Carboline Hydantoin and Tetrahydro-β-Carboline Thiohydantoin Derivatives as Phosphodiesterase 5 Inhibitors” (International Journal of Medicinal Chemistry, 2011).
